# Measurements published in the kinase profiling compilation of Christmann-Franck et al. (2016).
# Values joined by “and” are separate entries in the source; they are usually repeats but may differ in a detail not shown here. Equal values may be shown once.
# Legend:
# Assay in all cases: radiometric filter-binding kinase assay, Kinase HotSpot
# Conditions in all cases: compound 0.5 µM; ATP 10 µM
# [1] = target: PRKD2 (human) (UniProt Q9BZL6)
# [2] = target: CSNK1G2 (human) (UniProt P78368)
# [3] = target: CSNK2A2 (human) (UniProt P19784)
# [4] = target: JAK1 JH1 catalytic (human) (UniProt P23458)
# [5] = target: EPHB2 (human) (UniProt P29323)
# [6] = target: HIPK4 (human) (UniProt Q8NE63)
# [7] = target: NEK7 (human) (UniProt Q8TDX7)
# NEK7 (human), sequence (Q8TDX7 whole entry, looked up): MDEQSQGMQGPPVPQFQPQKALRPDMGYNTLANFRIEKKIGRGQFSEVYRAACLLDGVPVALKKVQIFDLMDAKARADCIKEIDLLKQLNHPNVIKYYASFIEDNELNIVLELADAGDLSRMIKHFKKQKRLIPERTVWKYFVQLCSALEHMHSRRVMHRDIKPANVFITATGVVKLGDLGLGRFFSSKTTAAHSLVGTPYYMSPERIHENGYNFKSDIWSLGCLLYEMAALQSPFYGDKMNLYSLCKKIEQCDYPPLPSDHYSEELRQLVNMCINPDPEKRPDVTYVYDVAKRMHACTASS
# [8] = target: STK25 (human) (UniProt O00506)
# [9] = target: MERTK (human) (UniProt Q12866)
# MERTK (human), sequence (Q12866 whole entry, looked up): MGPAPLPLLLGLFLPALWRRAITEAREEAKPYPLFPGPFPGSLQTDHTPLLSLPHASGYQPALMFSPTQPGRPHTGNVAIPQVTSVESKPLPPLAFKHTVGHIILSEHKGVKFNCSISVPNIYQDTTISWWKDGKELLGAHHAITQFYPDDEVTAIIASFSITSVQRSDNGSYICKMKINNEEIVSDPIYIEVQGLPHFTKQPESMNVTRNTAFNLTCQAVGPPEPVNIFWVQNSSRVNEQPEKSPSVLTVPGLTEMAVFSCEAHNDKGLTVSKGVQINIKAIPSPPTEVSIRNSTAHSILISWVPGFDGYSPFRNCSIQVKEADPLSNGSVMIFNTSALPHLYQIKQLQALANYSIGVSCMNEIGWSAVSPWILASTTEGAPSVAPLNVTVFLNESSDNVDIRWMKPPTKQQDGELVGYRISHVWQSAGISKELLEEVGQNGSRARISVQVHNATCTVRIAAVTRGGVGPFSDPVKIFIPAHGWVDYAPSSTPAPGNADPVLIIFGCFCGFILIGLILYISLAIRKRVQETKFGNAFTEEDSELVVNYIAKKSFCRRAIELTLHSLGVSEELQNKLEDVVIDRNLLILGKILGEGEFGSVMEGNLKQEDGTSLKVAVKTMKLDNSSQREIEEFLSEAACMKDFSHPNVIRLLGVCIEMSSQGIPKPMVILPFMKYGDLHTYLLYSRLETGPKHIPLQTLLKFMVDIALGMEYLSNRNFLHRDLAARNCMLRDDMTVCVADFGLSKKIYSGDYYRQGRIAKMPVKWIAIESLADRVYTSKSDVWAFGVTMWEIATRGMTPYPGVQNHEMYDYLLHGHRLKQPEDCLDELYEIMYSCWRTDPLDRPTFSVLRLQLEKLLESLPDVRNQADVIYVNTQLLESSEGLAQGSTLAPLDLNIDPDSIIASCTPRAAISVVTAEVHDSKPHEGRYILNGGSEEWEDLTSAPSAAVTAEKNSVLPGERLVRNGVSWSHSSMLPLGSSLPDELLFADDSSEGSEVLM
# [10] = target: TBK1 (human) (UniProt Q9UHD2)
# [11] = target: SRPK2 (human) (UniProt P78362)
# SRPK2 (human), sequence (P78362 whole entry, looked up): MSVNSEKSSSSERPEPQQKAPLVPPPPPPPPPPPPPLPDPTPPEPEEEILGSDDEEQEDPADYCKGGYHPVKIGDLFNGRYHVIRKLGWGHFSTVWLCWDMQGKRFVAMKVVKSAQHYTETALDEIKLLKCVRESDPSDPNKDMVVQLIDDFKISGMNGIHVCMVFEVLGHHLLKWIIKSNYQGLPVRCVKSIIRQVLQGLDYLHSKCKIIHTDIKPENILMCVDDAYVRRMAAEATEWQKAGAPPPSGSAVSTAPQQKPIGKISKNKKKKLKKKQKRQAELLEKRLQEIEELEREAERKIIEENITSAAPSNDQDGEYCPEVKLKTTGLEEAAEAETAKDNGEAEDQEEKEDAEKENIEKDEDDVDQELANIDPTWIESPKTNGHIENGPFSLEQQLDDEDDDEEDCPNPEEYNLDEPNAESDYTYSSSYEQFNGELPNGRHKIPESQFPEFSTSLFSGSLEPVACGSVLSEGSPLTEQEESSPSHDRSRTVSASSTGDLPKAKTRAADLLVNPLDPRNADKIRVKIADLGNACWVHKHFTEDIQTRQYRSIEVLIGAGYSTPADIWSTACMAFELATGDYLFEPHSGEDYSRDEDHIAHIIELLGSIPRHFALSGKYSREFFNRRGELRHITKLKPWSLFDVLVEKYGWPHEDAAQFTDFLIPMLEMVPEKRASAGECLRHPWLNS
# [12] = target: MAP3K9 (human) (UniProt P80192)
# [13] = target: EPHA3 (human) (UniProt P29320)
# [14] = target: EPHA1 (human) (UniProt P21709)
# [15] = target: RET (human) (UniProt P07949)
# [16] = target: DDR2 (human) (UniProt Q16832)
# [17] = target: EPHA2 (human) (UniProt P29317)
# [18] = target: CAMK1D (human) (UniProt Q8IU85)
# [19] = target: CDK4 CCND3 (human) (UniProt P30281+P11802)
# [20] = target: DYRK1A (human) (UniProt Q13627)
# [21] = target: MARK1 (human) (UniProt Q9P0L2)
# [22] = target: NUAK2 (human) (UniProt Q9H093)
# [23] = target: MAP3K2 (human) (UniProt Q9Y2U5)
# [24] = target: NUAK1 (human) (UniProt O60285)
# [25] = target: RPS6KA3 KD1 KD2 (human) (UniProt P51812)
# RPS6KA3 KD1 KD2 (human), sequence (P51812 whole entry, looked up): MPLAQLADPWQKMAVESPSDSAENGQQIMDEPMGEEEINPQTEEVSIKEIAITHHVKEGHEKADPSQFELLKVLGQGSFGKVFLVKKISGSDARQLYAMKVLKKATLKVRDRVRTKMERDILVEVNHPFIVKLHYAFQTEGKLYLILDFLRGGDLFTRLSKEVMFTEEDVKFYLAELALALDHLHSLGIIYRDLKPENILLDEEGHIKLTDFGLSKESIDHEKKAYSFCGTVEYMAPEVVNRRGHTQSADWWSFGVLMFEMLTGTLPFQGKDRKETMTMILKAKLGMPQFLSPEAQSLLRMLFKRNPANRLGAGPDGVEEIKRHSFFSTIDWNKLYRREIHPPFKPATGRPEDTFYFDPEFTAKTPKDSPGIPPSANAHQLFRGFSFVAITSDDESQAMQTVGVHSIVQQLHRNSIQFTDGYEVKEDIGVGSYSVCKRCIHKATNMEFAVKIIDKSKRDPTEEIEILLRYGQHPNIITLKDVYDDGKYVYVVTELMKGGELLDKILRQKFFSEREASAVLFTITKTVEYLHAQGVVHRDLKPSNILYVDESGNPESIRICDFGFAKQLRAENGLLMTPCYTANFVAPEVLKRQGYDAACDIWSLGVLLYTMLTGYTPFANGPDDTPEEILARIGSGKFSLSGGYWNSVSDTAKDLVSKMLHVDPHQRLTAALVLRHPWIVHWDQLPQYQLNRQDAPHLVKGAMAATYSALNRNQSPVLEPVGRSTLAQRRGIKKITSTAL
# [26] = target: EPHA8 (human) (UniProt P29322)
# [27] = target: MAP2K2 (human) (UniProt P36507)
# [28] = target: NTRK3 (human) (UniProt Q16288)
# [29] = target: MAPK13 (human) (UniProt O15264)
# [30] = target: GSK3A (human) (UniProt P49840)
# [31] = target: DAPK1 (human) (UniProt P53355)
# DAPK1 (human), sequence (P53355 whole entry, looked up): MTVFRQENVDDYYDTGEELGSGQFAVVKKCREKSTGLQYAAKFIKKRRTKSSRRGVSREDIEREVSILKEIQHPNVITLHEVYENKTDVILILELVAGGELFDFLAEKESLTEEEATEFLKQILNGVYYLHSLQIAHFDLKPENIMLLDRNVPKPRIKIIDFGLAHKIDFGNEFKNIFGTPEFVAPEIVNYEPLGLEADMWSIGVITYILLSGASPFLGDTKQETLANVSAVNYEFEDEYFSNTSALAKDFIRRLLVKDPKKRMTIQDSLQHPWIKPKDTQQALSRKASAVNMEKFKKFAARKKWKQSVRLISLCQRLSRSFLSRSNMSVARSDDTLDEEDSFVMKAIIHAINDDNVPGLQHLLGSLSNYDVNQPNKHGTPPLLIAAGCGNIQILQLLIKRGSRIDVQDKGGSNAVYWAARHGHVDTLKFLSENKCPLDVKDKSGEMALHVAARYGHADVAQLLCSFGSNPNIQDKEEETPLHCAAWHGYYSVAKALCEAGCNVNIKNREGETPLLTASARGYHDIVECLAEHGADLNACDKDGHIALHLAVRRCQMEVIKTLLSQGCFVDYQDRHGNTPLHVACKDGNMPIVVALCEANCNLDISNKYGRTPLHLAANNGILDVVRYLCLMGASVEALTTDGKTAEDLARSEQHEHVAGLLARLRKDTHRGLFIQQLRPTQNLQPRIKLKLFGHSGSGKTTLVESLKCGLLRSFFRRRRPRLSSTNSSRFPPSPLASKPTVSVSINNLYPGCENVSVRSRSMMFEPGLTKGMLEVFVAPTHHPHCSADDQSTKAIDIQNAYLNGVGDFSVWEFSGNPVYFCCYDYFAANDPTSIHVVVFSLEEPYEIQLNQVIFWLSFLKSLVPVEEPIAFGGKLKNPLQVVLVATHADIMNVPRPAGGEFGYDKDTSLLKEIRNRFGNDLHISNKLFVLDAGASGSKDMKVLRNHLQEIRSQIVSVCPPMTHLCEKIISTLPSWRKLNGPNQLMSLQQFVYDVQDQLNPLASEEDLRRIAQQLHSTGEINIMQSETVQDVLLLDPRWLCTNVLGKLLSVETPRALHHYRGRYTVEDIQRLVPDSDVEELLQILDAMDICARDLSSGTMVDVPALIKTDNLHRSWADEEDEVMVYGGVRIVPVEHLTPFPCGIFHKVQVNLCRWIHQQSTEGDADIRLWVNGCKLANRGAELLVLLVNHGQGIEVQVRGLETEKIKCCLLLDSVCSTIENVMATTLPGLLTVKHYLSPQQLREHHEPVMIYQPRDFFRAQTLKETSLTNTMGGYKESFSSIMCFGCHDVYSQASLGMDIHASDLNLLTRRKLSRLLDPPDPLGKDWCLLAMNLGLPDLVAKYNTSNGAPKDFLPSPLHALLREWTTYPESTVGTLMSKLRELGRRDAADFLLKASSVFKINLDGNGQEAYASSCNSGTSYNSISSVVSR
# [32] = target: FES (human) (UniProt P07332)
# [33] = target: GSG2 (human) (UniProt Q8TF76)
# [34] = target: CAMK2B (human) (UniProt Q13554)
# [35] = target: PRKG1 (human) (UniProt Q13976)
# [36] = target: CHUK (human) (UniProt O15111)
# CHUK (human), sequence (O15111 whole entry, looked up): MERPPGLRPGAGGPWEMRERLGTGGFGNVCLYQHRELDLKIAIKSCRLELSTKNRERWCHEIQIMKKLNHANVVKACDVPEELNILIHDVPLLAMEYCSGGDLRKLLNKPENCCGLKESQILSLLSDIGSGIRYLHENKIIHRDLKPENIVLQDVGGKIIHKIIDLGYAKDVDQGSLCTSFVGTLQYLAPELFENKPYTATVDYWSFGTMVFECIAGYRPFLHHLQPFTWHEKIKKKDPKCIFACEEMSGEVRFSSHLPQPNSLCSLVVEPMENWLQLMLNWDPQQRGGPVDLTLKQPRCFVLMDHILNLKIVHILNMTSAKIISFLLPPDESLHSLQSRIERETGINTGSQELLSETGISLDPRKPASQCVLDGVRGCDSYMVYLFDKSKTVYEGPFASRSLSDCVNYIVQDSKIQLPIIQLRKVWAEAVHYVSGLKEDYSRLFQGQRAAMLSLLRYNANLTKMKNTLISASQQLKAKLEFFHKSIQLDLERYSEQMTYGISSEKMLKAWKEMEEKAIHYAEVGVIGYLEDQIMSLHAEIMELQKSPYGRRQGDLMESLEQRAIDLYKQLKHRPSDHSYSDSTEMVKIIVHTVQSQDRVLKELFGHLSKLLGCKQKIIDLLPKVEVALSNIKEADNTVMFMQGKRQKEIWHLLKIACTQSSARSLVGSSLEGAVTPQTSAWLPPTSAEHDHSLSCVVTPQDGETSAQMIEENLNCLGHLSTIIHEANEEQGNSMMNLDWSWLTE
# [37] = target: IGF1R (human) (UniProt P08069)
# [38] = target: NTRK2 (human) (UniProt Q16620)
# [39] = target: BTK (human) (UniProt Q06187)
# [40] = target: PTK2B (human) (UniProt Q14289)
# [41] = target: TSSK1B (human) (UniProt Q9BXA7)
# [42] = target: ABL2 (human) (UniProt P42684)
smiles,measurement,setting,value
FC(F)(F)c1ccc(/C=C/c2nc(COc3ccc(CCCCn4ccnn4)cc3)co2)cc1,residual activity,[1],96.9%
same,residual activity,[2],96.7%
same,residual activity,[3],102%
same,residual activity,[4],103%
same,residual activity,[5],98.3%
same,residual activity,[6],105%
same,residual activity,[7],94.6%
same,residual activity,[8],91.8%
same,residual activity,[9],97.9%
same,residual activity,[10],101%
same,residual activity,[11],101%
same,residual activity,[12],105%
same,residual activity,[13],92.7%
same,residual activity,[14],97.2%
same,residual activity,[15],101%
same,residual activity,[16],101%
same,residual activity,[17],102%
same,residual activity,[18],109%
same,residual activity,[19],119%
same,residual activity,[20],105%
same,residual activity,[21],102%
same,residual activity,[22],101%
same,residual activity,[23],102%
same,residual activity,[24],103%
same,residual activity,[25],96.8%
same,residual activity,[26],104%
same,residual activity,[27],114%
same,residual activity,[28],98.9%
same,residual activity,[29],99.1%
same,residual activity,[30],102%
same,residual activity,[31],91.3%
same,residual activity,[32],102%
same,residual activity,[33],105%
same,residual activity,[34],99.3%
same,residual activity,[35],75.9% and 98.1%
same,residual activity,[36],96.8%
same,residual activity,[37],101%
same,residual activity,[38],102%
same,residual activity,[39],98.2%
same,residual activity,[40],103%
same,residual activity,[41],93.4%
COc1cc2c(Nc3ccc(Br)cc3F)ncnc2cc1OCC1CCN(C)CC1,residual activity,[1],92%
same,residual activity,[2],98.5%
same,residual activity,[3],96.5%
same,residual activity,[4],99.1%
same,residual activity,[5],24.4%
same,residual activity,[42],14%
same,residual activity,[6],100%
same,residual activity,[7],99%
same,residual activity,[8],99%
same,residual activity,[9],47.9%
same,residual activity,[10],99.9%
same,residual activity,[11],106%
same,residual activity,[12],96.1%
same,residual activity,[13],57.7%
same,residual activity,[14],31.7%
same,residual activity,[16],68%
same,residual activity,[17],21.5%
same,residual activity,[18],90.6%
same,residual activity,[19],101%
same,residual activity,[20],106%
same,residual activity,[21],83.7%
same,residual activity,[22],100%
same,residual activity,[23],108%
same,residual activity,[24],92.7%
same,residual activity,[25],97.8%
same,residual activity,[26],33.9%
same,residual activity,[28],72.2%
same,residual activity,[29],95.5%
same,residual activity,[30],103%
same,residual activity,[31],105%
same,residual activity,[32],104%
same,residual activity,[33],92.6%
same,residual activity,[34],98.2%
same,residual activity,[35],96.6% and 99.8%
same,residual activity,[36],96.6%
same,residual activity,[37],94.6%
same,residual activity,[38],93.2%
same,residual activity,[39],17.6%
same,residual activity,[40],99.5%
same,residual activity,[41],96.6%
N/C(=N\N=C/c1ccc(-c2cccc([N+](=O)[O-])c2)o1)N[N+](=O)[O-],residual activity,[1],94.3%
same,residual activity,[2],101%
same,residual activity,[3],107%
same,residual activity,[4],102%
same,residual activity,[5],84.6%
same,residual activity,[42],95.7%
same,residual activity,[6],102%
same,residual activity,[7],102%
same,residual activity,[8],86.3%
same,residual activity,[9],92.3%
same,residual activity,[10],104%
same,residual activity,[11],101%
same,residual activity,[13],99.3%
same,residual activity,[14],88.9%
same,residual activity,[15],99.9%
same,residual activity,[16],101%
same,residual activity,[18],96.4%
same,residual activity,[19],103%
same,residual activity,[20],95.8%
same,residual activity,[21],90.7%
same,residual activity,[22],95.2%
same,residual activity,[23],97%
same,residual activity,[24],96.4%
same,residual activity,[25],101%
same,residual activity,[26],102%
same,residual activity,[27],78.2%
same,residual activity,[28],104%
same,residual activity,[29],101%
same,residual activity,[30],108%
same,residual activity,[31],97.8%
same,residual activity,[32],101%
same,residual activity,[33],89.1%
same,residual activity,[34],100%
same,residual activity,[35],87.4% and 95.8%
same,residual activity,[36],88.1%
same,residual activity,[37],96.4%
same,residual activity,[38],82.4%
same,residual activity,[39],110%
same,residual activity,[40],91.5%
same,residual activity,[41],96.7%
